From US20250332096A1, “BEVERAGE FORMULATION AND METHOD OF PROMOTING CELLULAR HYDRATION BY ENHANCING INTRACELLULAR PERMEATION” (Eastpond Laboratories Limited, priority 2024, published 2025)

How the values were obtained:
[1] = Water bonding detected by NIR spectroscopy; format: physicochemical; conditions: wavelength region 900-1200 nm; 0.1%-5% w/w
[2] = Water bonding detected by NIR spectroscopy; format: physicochemical; conditions: for water-bond interactions, second-derivative NIR spectra: 0.1%-5% w/w
Method: Hydration bond energies in pure waters and solutions of the same waters containing cyclodextrin compounds were assayed using IR spectroscopy in the near and middle infrared ranges. To record linear signals throughout an entire wavelength range, attenuation from water absorbance was minimized with a short optical length cuvette. NIR range spectra were registered on a FOSS NIR Systems, Inc. 6500 spectrometer and Sample Transport Module (STM) using a 1 mm-sized cuvette. Transmission spectra were collected from 1100-2498 nm using a lead sulfide (PbS) detector and Vision 2.51 software (2001; FOSS NIRSystems, Inc.) A Perkin-Elmer Spectrum 400 FT-NIR/FT-IR spectrometer and UATR (Universal Attenuated Total Reflectance; ZnSe-diamond crystal, 1× flat top plate) sample handling unit were used to obtain spectra across 2500-15385 nm (reported as 4000-650 cm^1). Measurements were performed at 24 C using a triglycine-sulfate (TGS) detector and Spectrum ES 6.3.2 software (PerkinElmer, 2008). Three samples of water were used in the present study. A first water sample was purified by reverse osmosis, carbon filtration, ultraviolet light exposure, membrane filtration to 0.2 micron absolute, and ozonation. Second and third water samples were not purified. […] No. CYL-2322. • β-cyclodextrin (βCD also denoted as BCD). Lot. No. CYL-2518/2. • γ-cyclodextrin (γCD also denoted as GCD), Lot. No. […] No. […] No. CYL-2258. • carboxymethyl-β-cyclodextrin (CMBCD), Lot. No. CYL-2576. • quaternary-ammonium-β-cyclodextrin (QABCD).

C. elegans = C. elegans longevity in hydration modified water (Example 5); format: in vivo; conditions: for Animals alive, % of initial: 0.1% w/w in nutritive media, USA I water; for effect on C. elegans survival: added to the culture media
Method: C. elegans nematodes were grown in petri-type dishes containing normal nutrient liquid media prepared alternatively with USA I water (described in Example 2) lacking any further additive component (control) or the same water supplemented with a parent α-, β-, or γ-cyclodextrin, and/or a bioactive agent, as an active component of cellular hydration. Fifty ±3 worms were transferred to each dish. Each condition was repeated in triplicate. Experiments were repeated for USA II and BP I waters described in Example 2.
• A. Addition of parent α-, β- and γ-cyclodextrins. • B. Addition of L-arginine and nicotinamide. • C. Addition of inclusion complexes of cyclodextrins with L-arginine and nicotinamide.

[3] = system: Wheat seeds (Triticum aestivum); test: Wheat seed germination; format: in vivo; conditions: 0.5% w/w in USA I water
Method: Wheat seeds (Triticum aestivum) were germinated using USA I, USA II, and BP I waters described for Example 2. Germination rate using un-supplemented (control) water was compared to that with the same water variously supplemented with a cyclodextrin component, and/or a bioactive agent, as an active component of cellular hydration. For each condition, ten seeds were placed in continuous water contact in a Petri-type dish kept at 25 C in 12 hr light/dark cycles. Photometric images were recorded on days 1 to 6 after seeding. The percentage of seeds germinated was calculated and compared as a function of time and of the applied additive concentrations.
Water samples for seed germination were used alone with no additive, or containing cyclodextrins, or containing clathrate inclusion complexes of cyclodextrin with L-arginine or with nicotinamide (both obtained from Sigma Chemical Co.; St. Louis, MO), or with L-carnitine (from Lonza AG; Switzerland). […] Additive solutions were prepared fresh on the day of germination start.
Parent cyclodextrins α-cyclodextrin (ACD), β-cyclodextrin (BCD), and γ-cyclodextrin (GCD), were obtained from Wacker Chemie (Munich, Germany). The following derivatized cyclodextrins were obtained from Cyclolab Ltd. (Budapest, Hungary): hydroxypropylated-beta-cyclodextrin (DS-3)(HPBCD), carboxymethylated-β-cyclodextrin (DS-3.5)(CMBCD), 2-hydroxy-3-N,N,N-trimethylamino)propyl-β-cyclodextrin chloride (DS-3.6)(QABCD).
Germination kinetics in control and additive-modified water under identical conditions were quantified as the percentage of the seeds having a sprout. Each determination consisted of 100 seeds for each parameter. Results are reported in Table 5, below, and in FIGS. 11-13. • A) Cyclodextrin/L-Arg Inclusion Complex Increases Seed Germination.

Row | Molecule | water-bond interactions, second-derivative NIR spectra [1] | water-bond interactions, second-derivative NIR spectra ([2]; 1200-1500 nm) | water-bond interactions, second-derivative NIR spectra ([2]; 1620-1710 nm) | water-bond interactions, second-derivative NIR spectra ([2]; 2170-2370 nm) | modification of micro-structure of hydrogen bonded cluster systems in bulk water (spectral changes) ([2]; comparison among cyclodextrin-treated water samples) | Animals alive, % of initial (C. elegans; life span 10 days) | Animals alive, % of initial (C. elegans; life span 15 days) | Animals alive, % of initial (C. elegans; life span 18 days) | effect on C. elegans survival (C. elegans) | wheat seed germination, percentage of the seeds having a sprout ([3]; day 0) [%] | wheat seed germination, percentage of the seeds having a sprout ([3]; day 1) [%] | wheat seed germination, percentage of the seeds having a sprout ([3]; day 2) [%] | wheat seed germination, percentage of the seeds having a sprout ([3]; day 3) [%] | wheat seed germination, percentage of the seeds having a sprout ([3]; day 4) [%]
1 | 2-hydroxy-3-N,N,N-trimethylamino)propyl-β-cyclodextrin chloride [Quaternary-ammonium-β-Cyclodextrin] | significantly modified | significantly modified | significantly modified | further significantly modified | largest | 98 % of initial | 13 % of initial | 2 % of initial | – | – | – | – | – | –
2 | OC[C@H]1O[C@@H]2O[C@H]3[C@H](O)[C@@H](O)[C@@H](O[C@H]4[C@H](O)[C@@H](O)[C@@H](O[C@H]5[C@H](O)[C@@H](O)[C@@H](O[C@H]6[C@H](O)[C@@H](O)[C@@H](O[C@H]7[C@H](O)[C@@H](O)[C@@H](O[C@H]8[C@H](O)[C@@H](O)[C@@H](O[C@H]1[C@H](O)[C@H]2O)O[C@@H]8CO)O[C@@H]7CO)O[C@@H]6CO)O[C@@H]5CO)O[C@@H]4CO)O[C@@H]3CO [β-Cyclodextrin, β-cyclodextrin] | – | – | – | – | – | 100 % of initial | 18 % of initial | 0 % of initial | – | – | – | – | – | –
3 | carboxymethyl-β-cyclodextrin | further significantly modified | further significantly modified | significantly modified | significantly modified | – | 94 % of initial | 11 % of initial | 0 % of initial | – | – | – | – | – | –
4 | N=C(N)NCCC[C@H](N)C(=O)O [L-arginine, reference compound] | – | – | – | – | – | – | – | – | little effect | – | – | – | – | –
5 | CC(O)COC[C@H]1O[C@@H]2O[C@H]3[C@H](O)[C@@H](O)[C@@H](O[C@H]4[C@H](O)[C@@H](O)[C@@H](O[C@H]5[C@H](O)[C@@H](O)[C@@H](O[C@H]6[C@H](O)[C@@H](O)[C@@H](O[C@H]7[C@H](O)[C@@H](O)[C@@H](O[C@H]8[C@H](O)[C@@H](O)[C@@H](O[C@H]1[C@H](O)[C@H]2O)O[C@@H]8COCC(C)O)O[C@@H]7COCC(C)O)O[C@@H]6COCC(C)O)O[C@@H]5COCC(C)O)O[C@@H]4COCC(C)O)O[C@@H]3COCC(C)O (stereo partly drawn) [HP-β-Cyclodextrin, 2-hydroxypropyl-β-cyclodextrin] | further significantly modified | significantly modified | significantly modified | significantly modified | – | 96 % of initial | 17 % of initial | 0 % of initial | – | – | – | – | – | –
6 | NC(=O)c1cccnc1 [nicotinamide, reference compound] | – | – | – | – | – | – | – | – | little effect | 0 | 0 | 4 | 10 | 60
